Data reported in patent US11964950B2, “Arylamide derivative having antitumor activity” (priority 2020, dated 2024).

Tests used:
[1] = tested on: NCI-H2122 human lung cancer cells; experiment: Cell proliferation-inhibiting activity, NCI-H2122 (CellTiter-Glo, ATP in viable cells); format: cell-based; conditions: NCI-H2122, 96 h, Table 3, 4 days culture
Experimental: (§1) The cell proliferation-inhibiting activity of the compounds listed in Table 3 below was evaluated by measuring the amount of ATP in viable cells as described below.
(§2) The test compound was serially diluted with DMSO and then diluted 25-fold with Ca^2+, Mg^2+-free phosphate-buffered saline, and was then dispensed into a 96-well plate at 5 μL per well. A cell suspension containing the below indicated concentration of A549, Calu-6 or NCI-H2122 human lung cancer cells (all obtained from ATCC) was prepared using the below indicated medium with the addition of 10% fetal bovine serum (Sigma). The cell suspension was dispensed into the test compound-added plate at 95 μL per well and cultured in a 5% carbon dioxide gas incubator at 37° C. After 4 days, 80 μL of CellTiter-Glo (registered trademark) (Promega Corp.) was added to each well and the bioluminescence was measured with a fluorescent plate reader.

[2] = tested on: A549 human lung cancer cells; experiment: Cell proliferation-inhibiting activity, A549 (CellTiter-Glo, ATP in viable cells); format: cell-based; conditions: A549, 96 h, Table 3, 4 days culture
Experimental: as §1, §2
A549: Dulbecco's Modified Eagle's Medium (Sigma); 2000 cells/95 μL

[3] = tested on: Calu-6 human lung cancer cells; experiment: Cell proliferation-inhibiting activity, Calu-6 (CellTiter-Glo, ATP in viable cells); format: cell-based; conditions: Calu-6, 96 h, Table 3, 4 days culture
Experimental: as §1, §2
Calu-6: Eagle's Minimum Essential Medium (Sigma); 4000 cells/95 μL

[4] = Human liver microsome stability; format: in vitro ADME; conditions: NADPH, 37° C.; for microsomal CLint at 0.99 µM: human liver microsomes (XENOTECH), pH 7.4, hepatic intrinsic clearance; for CLint: hepatic intrinsic clearance, human liver microsomes
Experimental: There were dispensed 400 μL of 1 mg/mL human liver microsomes (XENOTECH)/0.1 M potassium phosphate buffer (pH 7.4) into each well of a 96-well plate. A DMSO solution (4 μL) of 200 μM test compound was then added, and incubation was conducted until reaching 37° C. To this reaction mixture (200 μL) there was added a solution (200 μL) containing 2 mM NADPH (ORIENTAL YEAST)/0.1 M potassium phosphate buffer (pH 7.4) that had been incubated at 37° C. At 0 min, 5 min, 15 min or 30 min after addition, the reaction mixture (50 μL) was added to acetonitrile (100 μL) to stop the metabolic reaction. After the metabolic reaction was stopped, a 1 μM warfarin aqueous solution (50 μL) was added to each reaction mixture as an internal standard. The reaction mixture was filtered and analyzed by LC/MS/MS (LC: NEXERA by Shimadzu; MS: 4000Q trap by ABSciex; column: Ascentis Express C18 HPLC column (5 cm×2.1 mm, 2.7 μm); ionization method: electrospray ionization). The percent remaining relative to the amount of test compound at 0 min was calculated from the obtained peak area ratio of the test compound to internal standard. The elimination rate constant (ke) was calculated from the incubation time and percent remaining using the primary elimination rate equation, and the hepatic intrinsic clearance (CLint) was calculated using the formula shown below. CLint (μL/min/mg)=ke (min^−1)/human liver microsome concentration (mg protein/μL)

CLint [4]	Structure (SMILES)	IC50 [1]	IC50 [2]	IC50 [3]	microsomal CLint at 0.99 µM [4]
	NC(=O)c1cc(Cc2ccnc(NS(=O)(=O)NC3CC3)c2F)c(F)cc1Nc1ccc(I)cc1F [1-3, 5-[[2-(Cyclopropylsulfamoylamino)-3-fluoropyridin-4-yl]methyl]-4-fluoro-2-(2-fluoro-4-iodoanilino)benzamide]	21 nM	32 nM	120 nM	
	CNS(=O)(=O)Nc1nccc(Cc2cc(C(=O)NC3CC3)c(Nc3ccc(I)cc3F)c(F)c2F)c1F [A-2, N-cyclopropyl-3,4-difluoro-2-(2-fluoro-4-iodoanilino)-5-[[3-fluoro-2-(methylsulfamoylamino)pyridin-4-yl]methyl]benzamide]	0.1 nM	1 nM	2 nM	
	COCC1(NS(=O)(=O)Nc2nccc(Cc3cc(C(N)=O)c(Nc4ccc(I)cc4F)c(F)c3F)c2F)CC1 [A-16, 3,4-Difluoro-2-(2-fluoro-4-iodoanilino)-5-[[3-fluoro-2-[[1-(methoxymethyl)cyclopropyl]sulfamoylamino]pyridin-4-yl]methyl]benzamide]				47 µL/min/mg
<1 µL/min/mg	CC1(NS(=O)(=O)Nc2nccc(Cc3cc(C(N)=O)c(Nc4ccc(I)cc4F)c(F)c3F)c2F)CC1 [A-23, 3,4-Difluoro-2-(2-fluoro-4-iodoanilino)-5-[[3-fluoro-2-[(1-methylcyclopropyl)sulfamoylamino]pyridin-4-yl]methyl]benzamide]				
	CNS(=O)(=O)Nc1cccc(Cc2cc(C(=O)NC3CC3)c(Nc3ccc(C4CC4)cc3F)c(F)c2F)c1F [D-15, N-Cyclopropyl-2-(4-cyclopropyl-2-fluoroanilino)-3,4-difluoro-5-[[2-fluoro-3-(methylsulfamoylamino)phenyl]methyl]benzamide]	11 nM		118 nM	
	COCC1(S(=O)(=O)Nc2cccc(Cc3cc(C(=O)NOC)c(Nc4ccc(I)cc4F)c(F)c3F)c2F)CC1 [E-3, 3,4-Difluoro-2-(2-fluoro-4-iodoanilino)-5-[[2-fluoro-3-[[1-(methoxymethyl)cyclopropyl]sulfonylamino]phenyl]methyl]-N-methoxybenzamide]				149 µL/min/mg
	CS(=O)(=O)Nc1cccc(Cc2cc(C(N)=O)c(Nc3ccc(I)cc3F)c(F)c2F)c1F [E-13, 3,4-difluoro-2-(2-fluoro-4-iodoanilino)-5-[[2-fluoro-3-(methanesulfonamide)phenyl]methyl]benzamide]				25 µL/min/mg
<1 µL/min/mg	CC1(S(=O)(=O)Nc2cccc(Cc3cc(C(N)=O)c(Nc4ccc(I)cc4F)c(F)c3F)c2F)CC1 [E-16, 3,4-Difluoro-2-(2-fluoro-4-iodoanilino)-5-[[2-fluoro-3-[(1-methylcyclopropyl)sulfonylamino]phenyl]methyl]benzamide]				
	CS(=O)(=O)Nc1cccc(Cc2cc(C(=O)NC3CC3)c(Nc3ccc(I)cc3F)c(F)c2F)c1F [E-25, N-Cyclopropyl-3,4-difluoro-2-(2-fluoro-4-iodoanilino)-5-[[2-fluoro-3-(methanesulfonamide)phenyl]methyl]benzamide]				8 µL/min/mg
	CNS(=O)(=O)Nc1nccc(Cc2cc(C(=O)NC3CC3)c(Nc3ccc(C4CC4)cc3F)c(F)c2F)c1F [G-1, N-Cyclopropyl-2-(4-cyclopropyl-2-fluoroanilino)-3,4-difluoro-5-[[3-fluoro-2-(methylsulfamoylamino)pyridin-4-yl]methyl]benzamide]	6 nM	21 nM	65 nM	
	CNS(=O)(=O)Nc1nccc(Cc2cc(C(N)=O)c(Nc3ccc4sccc4c3F)c(F)c2F)c1F [H-3, 3,4-difluoro-2-[(4-fluoro-1-benzothiophen-5-yl)amino]-5-[[3-fluoro-2-(methylsulfamoylamino)pyridin-4-yl]methyl]benzamide]	1 nM	5 nM		
	CNS(=O)(=O)Nc1nccc(Cc2cc(C(N)=O)c(Nc3ccc(C4CC4)cc3F)n(C)c2=O)c1F [J-3, 2-(4-Cyclopropyl-2-fluoroanilino)-5-[[3-fluoro-2-(methylsulfamoylamino)pyridin-4-yl]methyl]-1-methyl-6-oxopyridine-3-carboxamide]	123 nM	854 nM	972 nM	
	Cn1c(Nc2ccc(I)cc2F)c(C(N)=O)cc(Cc2ccnc(NS(=O)(=O)NC3CC3)c2F)c1=O [J-13, 5-[[2-(Cyclopropylsulfamoylamino)-3-fluoropyridin-4-yl]methyl]-2-(2-fluoro-4-iodoanilino)-1-methyl-6-oxopyridine-3-carboxamide]		196 nM	281 nM	
	CCNS(=O)(=O)Nc1nccc(Cc2cc(C(N)=O)c(Nc3ccc(I)cc3F)n(C)c2=O)c1F [J-14, 5-[[2-(ethylsulfamoylamino)-3-fluoropyridin-4-yl]methyl]-2-(2-fluoro-4-iodoanilino)-1-methyl-6-oxopyridine-3-carboxamide]		121 nM	123 nM	
	CCS(=O)(=O)Nc1cccc(Cc2cc(C(=O)NOC(C)(C)C)c(Nc3ccc(I)cc3F)n(C)c2=O)c1F [K-9, 5-[[3-(Ethylsulfonylamino)-2-fluorophenyl]methyl]-2-(2-fluoro-4-iodoanilino)-1-methyl-N-[(2-methylpropan-2-yl)oxy]-6-oxopyridine-3-carboxamide]				185 µL/min/mg
	CCS(=O)(=O)Nc1nccc(Cn2cc(C(N)=O)c(Nc3ccc(I)cc3F)c(C)c2=O)c1F [P-2, 1-[[2-(ethylsulfonylamino)-3-fluoropyridin-4-yl]methyl]-4-(2-fluoro-4-iodoanilino)-5-methyl-6-oxopyridine-3-carboxamide]	109 nM		337 nM	
<1 µL/min/mg	CNS(=O)(=O)Nc1nccc(Cc2c(C)c3ccc(Oc4ncccn4)cc3oc2=O)c1F [Ref-5, 3-[[3-Fluoro-2-(methylsulfamoylamino)pyridin-4-yl]methyl]-4-methyl-7-pyrimidin-2-yloxychromen-2-one, reference compound]				
